Measured values: the supplement of paper PMC10307832

What was measured:
Assay in all cases: relative viability (nuclei count vs DMSO), 5 days (fraction); higher = more cells survive
201T = test system: 201T
Outline: (§1)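 Each reported value is a median over duplicate plates. It expresses relative viability: treated-well nuclei count divided by vehicle-well nuclei count. Lung cancer cell lines in 1536-well plates were dosed by pin tool a day after seeding, alone with one drug or with a fixed anchor-drug dose plus five library-drug doses (not always all listed) in √10 steps, and nuclei were counted after 5 days.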

NCI-H2126 = test system: NCI-H2126
Outline: as §1

NCI-H838 = test system: NCI-H838
Outline: as §1

NCI-H23 = test system: NCI-H23
Outline: as §1

NCI-H647 = test system: NCI-H647
Outline: as §1

NCI-H1666 = test system: NCI-H1666
Outline: as §1

NCI-H1395 = test system: NCI-H1395
Outline: as §1

LOU-NH91 = test system: LOU-NH91
Outline: as §1

BEN = test system: BEN
Outline: as §1

NCI-H2347 = test system: NCI-H2347
Outline: as §1

NCI-H441 = test system: NCI-H441
Outline: as §1

NCI-H2009 = test system: NCI-H2009
Outline: as §1

NCI-H650 = test system: NCI-H650
Outline: as §1

EMC-BAC-2 = test system: EMC-BAC-2
Outline: as §1

NCI-H596 = test system: NCI-H596
Outline: as §1

HCC-44 = test system: HCC-44
Outline: as §1

HARA = test system: HARA
Outline: as §1

NCI-H1993 = test system: NCI-H1993
Outline: as §1

NCI-H2023 = test system: NCI-H2023
Outline: as §1

LCLC-103H = test system: LCLC-103H
Outline: as §1

NCI-H727 = test system: NCI-H727
Outline: as §1

NCI-H2087 = test system: NCI-H2087
Outline: as §1

NCI-H3122 = test system: NCI-H3122
Outline: as §1

CC1(C)CCC(c2ccc(Cl)cc2)=C(CN2CCN(c3ccc(C(=O)NS(=O)(=O)c4ccc(N[C@H](CCN5CCOCC5)CSc5ccccc5)c(S(=O)(=O)C(F)(F)F)c4)cc3)CC2)C1 [Navitoclax] + CC(=O)Nc1cccc(-n2c(=O)n(C3CC3)c(=O)c3c(Nc4ccc(I)cc4F)n(C)c(=O)c(C)c32)c1 [Trametinib] (partner 0.02 µM) showed a relative viability (201T; first compound 0.005 µM) of 0.715, a relative viability (201T; first compound 0.01581 µM) of 0.784 and a relative viability (201T; first compound 0.05 µM) of 0.741. For the same compound, the relative viability (201T; first compound 0.1581 µM) was 0.7, the relative viability (201T; first compound 0.5 µM) was 0.726 and the relative viability (NCI-H2126; first compound 0.005 µM) was 0.554. The relative viability (NCI-H2126; first compound 0.01581 µM) was 0.639, the relative viability (NCI-H2126; first compound 0.05 µM) was 0.638 and the relative viability (NCI-H2126; first compound 0.1581 µM) was 0.524. It also gave a relative viability (NCI-H2126; first compound 0.5 µM) of 0.561, a relative viability (NCI-H838; first compound 0.005 µM) of 0.422 and a relative viability (NCI-H838; first compound 0.01581 µM) of 0.639. For the same compound, the relative viability (NCI-H838; first compound 0.05 µM) was 0.51, the relative viability (NCI-H838; first compound 0.1581 µM) was 0.559 and the relative viability (NCI-H838; first compound 0.5 µM) was 0.555. It also gave a relative viability (NCI-H23; first compound 0.005 µM) of 0.338, a relative viability (NCI-H23; first compound 0.01581 µM) of 0.436 and a relative viability (NCI-H23; first compound 0.05 µM) of 0.443. The relative viability (NCI-H23; first compound 0.1581 µM) was 0.357, the relative viability (NCI-H23; first compound 0.5 µM) was 0.412 and the relative viability (NCI-H647; first compound 0.005 µM) was 0.345. The relative viability (NCI-H647; first compound 0.01581 µM) was 0.521, the relative viability (NCI-H647; first compound 0.05 µM) was 0.331 and the relative viability (NCI-H647; first compound 0.1581 µM) was 0.534. The relative viability (NCI-H647; first compound 0.5 µM) was 0.408, the relative viability (NCI-H1666; first compound 0.005 µM) was 0.933 and the relative viability (NCI-H1666; first compound 0.01581 µM) was 0.937. For the same compound, the relative viability (NCI-H1666; first compound 0.05 µM) was 0.928, the relative viability (NCI-H1666; first compound 0.1581 µM) was 0.903 and the relative viability (NCI-H1666; first compound 0.5 µM) was 0.931. For the same compound, the relative viability (NCI-H1395; first compound 0.005 µM) was 1.03, the relative viability (NCI-H1395; first compound 0.01581 µM) was 1.17 and the relative viability (NCI-H1395; first compound 0.05 µM) was 1.01. The relative viability (NCI-H1395; first compound 0.1581 µM) was 1.13, the relative viability (NCI-H1395; first compound 0.5 µM) was 1.04 and the relative viability (LOU-NH91; first compound 0.005 µM) was 0.776. The relative viability (LOU-NH91; first compound 0.01581 µM) was 0.829, the relative viability (LOU-NH91; first compound 0.05 µM) was 0.607 and the relative viability (LOU-NH91; first compound 0.1581 µM) was 0.685. For the same compound, the relative viability (LOU-NH91; first compound 0.5 µM) was 0.33, the relative viability (BEN; first compound 0.005 µM) was 1.07 and the relative viability (BEN; first compound 0.01581 µM) was 1.18. For the same compound, the relative viability (BEN; first compound 0.05 µM) was 0.94, the relative viability (BEN; first compound 0.1581 µM) was 1.05 and the relative viability (BEN; first compound 0.5 µM) was 0.669. For the same compound, the relative viability (NCI-H2347; first compound 0.005 µM) was 0.296, the relative viability (NCI-H2347; first compound 0.01581 µM) was 0.314 and the relative viability (NCI-H2347; first compound 0.05 µM) was 0.26. For the same compound, the relative viability (NCI-H2347; first compound 0.1581 µM) was 0.32, the relative viability (NCI-H2347; first compound 0.5 µM) was 0.259 and the relative viability (NCI-H441; first compound 0.005 µM) was 0.534. For the same compound, the relative viability (NCI-H441; first compound 0.01581 µM) was 0.616, the relative viability (NCI-H441; first compound 0.05 µM) was 0.349 and the relative viability (NCI-H441; first compound 0.1581 µM) was 0.448. For the same compound, the relative viability (NCI-H441; first compound 0.5 µM) was 0.553, the relative viability (NCI-H2009; first compound 0.005 µM) was 0.324 and the relative viability (NCI-H2009; first compound 0.01581 µM) was 0.355. It also gave a relative viability (NCI-H2009; first compound 0.05 µM) of 0.322, a relative viability (NCI-H2009; first compound 0.1581 µM) of 0.303 and a relative viability (NCI-H2009; first compound 0.5 µM) of 0.308. For the same compound, the relative viability (NCI-H650; first compound 0.005 µM) was 0.907, the relative viability (NCI-H650; first compound 0.01581 µM) was 1.2 and the relative viability (NCI-H650; first compound 0.05 µM) was 0.872. The relative viability (NCI-H650; first compound 0.1581 µM) was 1.09, the relative viability (NCI-H650; first compound 0.5 µM) was 0.878 and the relative viability (EMC-BAC-2; first compound 0.005 µM) was 0.728. It also gave a relative viability (EMC-BAC-2; first compound 0.01581 µM) of 0.87, a relative viability (EMC-BAC-2; first compound 0.05 µM) of 0.866 and a relative viability (EMC-BAC-2; first compound 0.1581 µM) of 0.848. The relative viability (EMC-BAC-2; first compound 0.5 µM) was 0.806, the relative viability (NCI-H596; first compound 0.005 µM) was 0.796 and the relative viability (NCI-H596; first compound 0.01581 µM) was 1.22. The relative viability (NCI-H596; first compound 0.05 µM) was 0.693, the relative viability (NCI-H596; first compound 0.1581 µM) was 0.79 and the relative viability (NCI-H596; first compound 0.5 µM) was 0.776. The relative viability (HCC-44; first compound 0.005 µM) was 1.1, the relative viability (HCC-44; first compound 0.01581 µM) was 1.05 and the relative viability (HCC-44; first compound 0.05 µM) was 0.94. It also gave a relative viability (HCC-44; first compound 0.1581 µM) of 1.05, a relative viability (HCC-44; first compound 0.5 µM) of 1.11 and a relative viability (HARA; first compound 0.005 µM) of 0.44. The relative viability (HARA; first compound 0.01581 µM) was 0.638, the relative viability (HARA; first compound 0.05 µM) was 0.917 and the relative viability (HARA; first compound 0.1581 µM) was 0.587. The relative viability (HARA; first compound 0.5 µM) was 1.06, the relative viability (NCI-H1993; first compound 0.005 µM) was 0.521 and the relative viability (NCI-H1993; first compound 0.01581 µM) was 0.513. The relative viability (NCI-H1993; first compound 0.05 µM) was 0.508, the relative viability (NCI-H1993; first compound 0.1581 µM) was 0.454 and the relative viability (NCI-H1993; first compound 0.5 µM) was 0.642. The relative viability (NCI-H2023; first compound 0.005 µM) was 0.556, the relative viability (NCI-H2023; first compound 0.01581 µM) was 0.724 and the relative viability (NCI-H2023; first compound 0.05 µM) was 0.554. The relative viability (NCI-H2023; first compound 0.1581 µM) was 0.5, the relative viability (NCI-H2023; first compound 0.5 µM) was 0.547 and the relative viability (LCLC-103H; first compound 0.005 µM) was 0.637. For the same compound, the relative viability (LCLC-103H; first compound 0.01581 µM) was 0.731, the relative viability (LCLC-103H; first compound 0.05 µM) was 0.704 and the relative viability (LCLC-103H; first compound 0.1581 µM) was 0.691. The relative viability (LCLC-103H; first compound 0.5 µM) was 0.685, the relative viability (NCI-H727; first compound 0.005 µM) was 0.406 and the relative viability (NCI-H727; first compound 0.01581 µM) was 0.393. The relative viability (NCI-H727; first compound 0.05 µM) was 0.378, the relative viability (NCI-H727; first compound 0.1581 µM) was 0.399 and the relative viability (NCI-H727; first compound 0.5 µM) was 0.403. The relative viability (NCI-H2087; first compound 0.005 µM) was 0.177, the relative viability (NCI-H2087; first compound 0.01581 µM) was 0.194 and the relative viability (NCI-H2087; first compound 0.1581 µM) was 0.145. The relative viability (NCI-H2087; first compound 0.5 µM) was 0.151, the relative viability (NCI-H3122; first compound 0.005 µM) was 0.243 and the relative viability (NCI-H3122; first compound 0.01581 µM) was 0.221. It also gave a relative viability (NCI-H3122; first compound 0.05 µM) of 0.217, a relative viability (NCI-H3122; first compound 0.1581 µM) of 0.222 and a relative viability (NCI-H3122; first compound 0.5 µM) of 0.211.
